Test results: patent US20060198889A1, “Roflumilast and integrin inhibitor combination and treatement method” (priority 2005, published 2006)

How the values were obtained:
[1] = tested on: mild/moderate asthmatics not treated with inhaled corticosteroids; experiment: ARES study: R411 monotherapy, 12 week treatment period; format: in vivo, human; details: for Asthma control Questionnaire (Total Score), change from baseline / Morning asthma symptoms, change from baseline / Rescue β2-agonist use (puffs/d), change from baseline: ITT population
Protocol: The ARES study illustrated in FIG. 3 was designed to evaluate the safety and efficacy of monotherapy R411 over a 12 week treatment period in 480 mild/moderate asthmatics not treated with inhaled corticosteroids. Patients were randomized to one of four cohorts: 50, 200, 600 mg QD R411, or placebo (n=120/group). The primary endpoint in the study was change in FEV1 from baseline, and secondary endpoints included PEFR, asthma exacerbations, β2-agonist use, asthma control questionnaire, asthma symptom scores, and nocturnal awakenings. Small airway inflammation represents a clinically significant component of moderate to severe asthma that is not adequately controlled by currently available inhaled corticosteroids therapies.
ARES study evaluated the safety and efficacy of monotherapy with R411 over a 12-week treatment period in 479 mild/moderate asthmatics not treated with inhaled corticosteroids. Patients were randomized to one of four cohorts: 50, 200, 600 mg once daily R411, or placebo.

α4/β1 integrin = α4/β1 integrin (Homo sapiens, UniProt P05556+P13612); experiment: Inhibition of α4/β1 binding to VCAM-1
α4/β1 integrin, sequence (P05556 21-798, one chain of several): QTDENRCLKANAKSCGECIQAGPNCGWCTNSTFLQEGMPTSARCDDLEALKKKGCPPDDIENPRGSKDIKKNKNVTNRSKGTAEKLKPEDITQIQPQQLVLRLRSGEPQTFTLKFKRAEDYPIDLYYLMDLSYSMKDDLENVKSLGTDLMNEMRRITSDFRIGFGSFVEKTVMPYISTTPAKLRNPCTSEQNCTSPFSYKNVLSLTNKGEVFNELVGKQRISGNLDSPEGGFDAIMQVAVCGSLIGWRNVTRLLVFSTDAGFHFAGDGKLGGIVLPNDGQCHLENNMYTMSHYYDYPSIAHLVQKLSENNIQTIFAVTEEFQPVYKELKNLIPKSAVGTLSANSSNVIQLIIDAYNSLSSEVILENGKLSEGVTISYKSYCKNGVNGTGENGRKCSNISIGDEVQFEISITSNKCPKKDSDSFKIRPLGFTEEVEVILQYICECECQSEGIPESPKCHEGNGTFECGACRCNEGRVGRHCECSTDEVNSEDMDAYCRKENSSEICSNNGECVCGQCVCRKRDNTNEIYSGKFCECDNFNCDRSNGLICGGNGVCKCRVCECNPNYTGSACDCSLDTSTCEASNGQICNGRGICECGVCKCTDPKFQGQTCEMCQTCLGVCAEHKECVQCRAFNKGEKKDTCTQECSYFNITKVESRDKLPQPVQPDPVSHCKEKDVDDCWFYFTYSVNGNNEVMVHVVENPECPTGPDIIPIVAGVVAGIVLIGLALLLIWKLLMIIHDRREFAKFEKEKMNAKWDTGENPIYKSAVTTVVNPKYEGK

α4/β7 integrin = biological target: T1, α4/β7 integrin (Homo sapiens, UniProt P13612+P26010); experiment: Inhibition of α4/β7 binding to MadCAM-1
T1 sequence (P13612 34-1032): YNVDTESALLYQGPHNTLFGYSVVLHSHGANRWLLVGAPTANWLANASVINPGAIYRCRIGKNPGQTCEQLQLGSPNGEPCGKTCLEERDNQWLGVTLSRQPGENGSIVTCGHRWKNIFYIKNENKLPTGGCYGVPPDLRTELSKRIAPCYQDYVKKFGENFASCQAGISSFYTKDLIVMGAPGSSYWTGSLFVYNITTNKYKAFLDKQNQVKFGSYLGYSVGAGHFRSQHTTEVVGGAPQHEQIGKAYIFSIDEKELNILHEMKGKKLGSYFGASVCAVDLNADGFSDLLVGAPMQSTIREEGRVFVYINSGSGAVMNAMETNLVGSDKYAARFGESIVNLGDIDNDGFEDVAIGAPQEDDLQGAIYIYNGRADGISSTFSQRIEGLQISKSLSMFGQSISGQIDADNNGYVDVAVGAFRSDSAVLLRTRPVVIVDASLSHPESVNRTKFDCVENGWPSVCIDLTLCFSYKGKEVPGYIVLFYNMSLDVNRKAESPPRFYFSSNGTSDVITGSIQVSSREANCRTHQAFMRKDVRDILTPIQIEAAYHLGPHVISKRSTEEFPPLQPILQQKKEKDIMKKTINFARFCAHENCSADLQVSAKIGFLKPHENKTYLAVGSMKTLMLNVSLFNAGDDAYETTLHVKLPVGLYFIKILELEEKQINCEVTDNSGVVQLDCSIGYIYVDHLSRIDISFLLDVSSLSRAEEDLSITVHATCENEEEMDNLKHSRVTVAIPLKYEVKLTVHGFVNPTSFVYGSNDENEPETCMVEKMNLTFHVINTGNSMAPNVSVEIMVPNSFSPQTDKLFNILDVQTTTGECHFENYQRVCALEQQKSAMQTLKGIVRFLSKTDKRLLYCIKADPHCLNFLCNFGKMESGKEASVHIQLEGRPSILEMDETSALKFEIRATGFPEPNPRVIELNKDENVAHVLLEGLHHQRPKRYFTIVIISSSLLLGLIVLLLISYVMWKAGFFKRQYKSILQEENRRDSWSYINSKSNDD
T1 sequence (P26010 20-798): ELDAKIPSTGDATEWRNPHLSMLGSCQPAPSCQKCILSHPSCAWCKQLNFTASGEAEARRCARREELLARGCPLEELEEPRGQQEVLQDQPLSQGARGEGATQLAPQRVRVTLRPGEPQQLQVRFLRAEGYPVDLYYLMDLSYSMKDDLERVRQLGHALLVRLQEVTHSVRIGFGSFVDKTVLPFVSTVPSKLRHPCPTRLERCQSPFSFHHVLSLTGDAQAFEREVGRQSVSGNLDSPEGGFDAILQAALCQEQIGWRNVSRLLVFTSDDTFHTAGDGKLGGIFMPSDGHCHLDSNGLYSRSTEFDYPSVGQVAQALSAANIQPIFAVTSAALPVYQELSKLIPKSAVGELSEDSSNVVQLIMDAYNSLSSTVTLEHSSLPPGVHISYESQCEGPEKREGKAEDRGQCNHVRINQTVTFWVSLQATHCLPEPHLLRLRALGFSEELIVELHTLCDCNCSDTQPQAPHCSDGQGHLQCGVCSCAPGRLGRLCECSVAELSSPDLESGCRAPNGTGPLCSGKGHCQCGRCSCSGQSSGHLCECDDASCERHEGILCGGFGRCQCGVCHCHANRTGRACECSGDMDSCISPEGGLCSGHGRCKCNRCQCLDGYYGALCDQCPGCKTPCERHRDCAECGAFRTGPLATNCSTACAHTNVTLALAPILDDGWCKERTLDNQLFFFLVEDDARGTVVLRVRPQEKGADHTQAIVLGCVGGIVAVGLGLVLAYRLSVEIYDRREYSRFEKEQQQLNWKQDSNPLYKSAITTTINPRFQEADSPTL

[2] = tested on: airway inflammation in the atopic primate; experiment: Airway inflammation in the atopic primate, oral R411 (FIG. 4); format: in vivo; details: oral administration, atopic primate (FIG. 4)
[3] = 12-week monotherapy, versus placebo

binding of α4/β1 to vascular cell adhesion molecule (VCAM-1) (α4/β1 integrin): inhibits | effectiveness against α4/β1 integrin (α4/β1 integrin): effective | binding of α4/β7 to MadCAM-1 (α4/β7 integrin): inhibits | effectiveness against α4/β7 integrin (α4/β7 integrin): effective
Structure (SMILES): CCN(CC)CCOC(=O)[C@H](Cc1ccc(NC(=O)c2c(Cl)cccc2Cl)cc1)NC(=O)c1c(C)cccc1Cl [R411, N-(2-Chloro-6-methylbenzoyl)-4-[(2,6-dichlorobenzoyl)amino]-L-phenylalanine-2-(diethylamino)ethyl ester]
decrease in daytime asthma symptom score [1, 3]: Statistically significant improvements | decrease in nocturnal symptom score [1, 3]: Statistically significant improvements | Asthma control Questionnaire (Total Score), change from baseline ([1]; R411 200 mg once daily): −0.29 [2.08] Total Score | Morning asthma symptoms, change from baseline ([1]; R411 200 mg once daily): −0.34*[1.55] | Rescue β2-agonist use (puffs/d), change from baseline ([1]; R411 200 mg once daily, N = 117): −0.36/[3.04] puffs/d | Asthma control Questionnaire (Total Score), change from baseline ([1]; R411 600 mg once daily): −0.23 [2.00] Total Score | Morning asthma symptoms, change from baseline ([1]; R411 600 mg once daily): −0.33*[1.57] | Rescue β2-agonist use (puffs/d), change from baseline ([1]; R411 600 mg once daily, N = 119): −0.41*/[3.11] puffs/d | Asthma Control Questionnaire Scores ([1]; compared to placebo): Improvement | Asthma Quality-of-Life ([1]; compared to placebo): Improvement | airway inflammation [2]: attenuates
